Reference: patent US20120129833A1, “CYCLIC KETOENOLS FOR THERAPY” (BAYER PHARMA AKTIENGESELLSCHAFT, priority 2010, published 2012)

Tests used:
[1] = molecular target: T1, recombinant human ACC1 (acetyl-CoA carboxylase 1) (Homo sapiens, UniProt Q13085); experiment: Human ACC1 enzyme assay (HTRF ADP detection); format: biochemical; conditions: 50 μM ATP, 20 μM acetyl-CoA, 15 min pre-incubation, 20 min at 22° C.; read-out: ACC 1 IC50;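 note: ADP by-product quantified by competitive HTRF immunoassay with europium cryptate anti-ADP antibody and d2-labelled ADP, read after 1 h binding at 22 °C, enzyme near 2.5 ng/µl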
T1 construct: NM_198834, amino acids 39—end; FLAG (C); made in house; host or cells: baculovirus-transfected insect cells (Hi5)
Experimental: The basic principle of the assay is the measurement of adenosine diphosphate (ADP), which is formed as a by-product, by means of an HTRF®-based competitive immunoassay (HTRF=Homogeneous Time Resolved Fluorescence).
The amount of complex of d2-labelled ADP and europium cryptate-labelled anti-ADP antibody was then determined by measuring the resonance energy transfer of europium cryptate to d2.

[2] = molecular target: T2, ACC2 (acetyl-CoA carboxylase 2) (Homo sapiens, UniProt O00763); experiment: Human ACC2 enzyme assay (HTRF ADP detection); format: biochemical; conditions: 20 μM acetyl-CoA, 15 min pre-incubation, 20 min at 22° C.; read-out: ACC 2 IC50
T2 construct: catalogue no; 50201, amino acids 39—end, expressed in baculovirus-transfected Sf9 insect cells; His (C); purchased BPS Bioscience (San Diego, Calif.) 50201; host or cells: baculovirus-transfected Sf9 insect cells
T2 sequence (O00763 39-2458 limits assumed): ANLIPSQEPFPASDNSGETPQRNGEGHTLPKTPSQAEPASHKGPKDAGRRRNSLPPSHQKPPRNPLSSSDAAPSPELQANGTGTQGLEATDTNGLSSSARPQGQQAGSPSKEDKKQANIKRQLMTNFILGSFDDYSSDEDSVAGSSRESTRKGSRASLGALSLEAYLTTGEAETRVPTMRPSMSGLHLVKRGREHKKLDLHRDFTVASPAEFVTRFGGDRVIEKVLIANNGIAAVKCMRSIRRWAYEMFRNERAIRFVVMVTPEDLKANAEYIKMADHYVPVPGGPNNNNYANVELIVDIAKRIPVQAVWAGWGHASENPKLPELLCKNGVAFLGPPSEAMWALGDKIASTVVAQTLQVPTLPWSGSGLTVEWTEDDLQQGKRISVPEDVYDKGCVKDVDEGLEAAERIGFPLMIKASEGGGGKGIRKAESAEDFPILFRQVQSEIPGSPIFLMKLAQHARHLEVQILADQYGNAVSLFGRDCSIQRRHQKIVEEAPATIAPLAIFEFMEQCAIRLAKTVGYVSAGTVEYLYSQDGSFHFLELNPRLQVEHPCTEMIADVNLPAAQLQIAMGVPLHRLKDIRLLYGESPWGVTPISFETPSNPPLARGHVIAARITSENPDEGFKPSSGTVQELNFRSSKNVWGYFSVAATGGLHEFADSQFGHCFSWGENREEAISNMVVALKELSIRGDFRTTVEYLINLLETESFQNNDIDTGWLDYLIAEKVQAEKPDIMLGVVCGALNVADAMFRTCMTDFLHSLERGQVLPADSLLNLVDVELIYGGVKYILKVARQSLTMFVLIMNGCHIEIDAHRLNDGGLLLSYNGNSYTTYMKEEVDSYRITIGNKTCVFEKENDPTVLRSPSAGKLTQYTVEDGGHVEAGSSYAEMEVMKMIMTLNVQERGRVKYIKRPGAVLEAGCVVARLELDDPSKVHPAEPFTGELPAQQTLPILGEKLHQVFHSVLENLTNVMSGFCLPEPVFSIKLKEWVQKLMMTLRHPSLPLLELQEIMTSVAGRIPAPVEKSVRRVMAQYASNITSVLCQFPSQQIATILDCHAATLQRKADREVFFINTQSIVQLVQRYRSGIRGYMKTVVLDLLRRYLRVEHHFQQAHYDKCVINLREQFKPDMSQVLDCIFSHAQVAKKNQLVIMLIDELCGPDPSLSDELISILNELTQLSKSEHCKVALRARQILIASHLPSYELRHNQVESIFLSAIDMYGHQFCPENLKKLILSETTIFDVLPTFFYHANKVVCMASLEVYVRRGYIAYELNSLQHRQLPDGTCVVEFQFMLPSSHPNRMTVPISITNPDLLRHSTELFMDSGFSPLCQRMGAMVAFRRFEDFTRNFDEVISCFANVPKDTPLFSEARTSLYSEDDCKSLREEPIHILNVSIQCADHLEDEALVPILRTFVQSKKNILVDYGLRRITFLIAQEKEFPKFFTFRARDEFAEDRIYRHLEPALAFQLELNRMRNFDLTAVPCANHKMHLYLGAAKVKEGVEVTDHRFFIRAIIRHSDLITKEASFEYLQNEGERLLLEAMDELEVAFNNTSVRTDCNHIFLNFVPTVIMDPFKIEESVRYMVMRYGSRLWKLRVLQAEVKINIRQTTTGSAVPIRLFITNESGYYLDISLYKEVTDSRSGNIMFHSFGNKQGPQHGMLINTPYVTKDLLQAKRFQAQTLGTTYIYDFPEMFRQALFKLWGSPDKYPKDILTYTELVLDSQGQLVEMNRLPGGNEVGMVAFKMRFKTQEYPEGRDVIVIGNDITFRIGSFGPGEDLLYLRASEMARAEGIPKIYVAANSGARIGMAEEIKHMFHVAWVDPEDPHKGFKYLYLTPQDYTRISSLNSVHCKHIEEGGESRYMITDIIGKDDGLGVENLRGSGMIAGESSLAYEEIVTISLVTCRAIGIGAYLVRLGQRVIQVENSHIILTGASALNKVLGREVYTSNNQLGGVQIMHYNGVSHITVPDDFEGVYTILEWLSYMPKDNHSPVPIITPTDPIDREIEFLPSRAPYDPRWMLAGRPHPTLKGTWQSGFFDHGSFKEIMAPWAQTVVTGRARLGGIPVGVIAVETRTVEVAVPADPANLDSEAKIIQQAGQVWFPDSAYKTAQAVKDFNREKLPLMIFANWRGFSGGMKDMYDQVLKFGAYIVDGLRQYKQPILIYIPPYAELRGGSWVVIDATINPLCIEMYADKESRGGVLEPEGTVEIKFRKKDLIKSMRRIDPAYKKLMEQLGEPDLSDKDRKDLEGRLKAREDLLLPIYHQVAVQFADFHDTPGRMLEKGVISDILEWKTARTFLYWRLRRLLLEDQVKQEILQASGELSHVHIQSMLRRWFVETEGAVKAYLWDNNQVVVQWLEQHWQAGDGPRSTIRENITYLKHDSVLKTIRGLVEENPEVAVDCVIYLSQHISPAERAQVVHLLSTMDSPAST

| SMILES | IC50 [1] | IC50 [2] |
| --- | --- | --- |
| O=C1C(c2cc(-c3ccc(F)cc3F)ccc2Cl)C(=O)N2CCOCCN12 [Example 8-11, 8-(4-chloro-2′,4′-difluorobiphenyl-3-yl)tetrahydro-7H-pyrazolo[1,2-d][1,4,5]oxadiazepine-7,9(8H)-dione] | 713 nM | > 20000 nM |
| Cc1ccc(-c2ccc(Cl)cc2)c(C)c1C1=C(O)C2(CCC3(CC2)OCCO3)NC1=O [Example 1-70, 11-(4′-chloro-2,4-dimethylbiphenyl-3-yl)-12-hydroxy-1,4-dioxa-9-azadispiro[4.2.4.2]tetradec-11-en-10-one] | 675 nM | 1840 nM |
| Cc1ccc(-c2ccc(Cl)cc2)cc1C1=C(O)C2(CCCCC2)NC1=O [Example 1-77, 3-(4′-chloro-4-methylbiphenyl-3-yl)-4-hydroxy-1-azaspiro[4.5]dec-3-en-2-one] | 327 nM | 860 nM |
| Cc1ccc(-c2cc(F)c(F)c(F)c2)cc1C1=C(O)C2(CCOCC2)NC1=O [Example 1-36, 4-hydroxy-3-(3′,4′,5′-trifluoro-4-methylbiphenyl-3-yl)-8-oxa-1-azaspiro[4.5]dec-3-en-2-one] | 792 nM | > 20000 nM |
| CC[C@]1(OC)CC[C@@]2(CC1)NC(=O)C(c1c(C)ccc(-c3ccc(F)cc3)c1C)=C2O [Example 1-89, (5r,8r)-8-ethyl-3-(4′-fluoro-2,4-dimethylbiphenyl-3-yl)-4-hydroxy-8-methoxy-1-azaspiro[4.5]dec-3-en-2-one] | 858 nM | > 20000 nM |
| Cc1ccc(-c2ccc(F)cc2)c(C)c1C1=C(O)C2(CCCCC2)NC1=O [Example 1-40, 3-(4′-fluoro-2,4-dimethylbiphenyl-3-yl)-4-hydroxy-1-azaspiro[4.5]dec-3-en-2-one] | 1200 nM | 15000 nM |
| Cc1ccc(-c2ccc(Cl)cc2)cc1C1=C(O)C2(CCCCCCC2)NC1=O [Example 1-23, 3-(4′-chloro-4-methylbiphenyl-3-yl)-4-hydroxy-1-azaspiro[4.7]dodec-3-en-2-one] | 584 nM | 485 nM |
| Cc1ccc(-c2ccc(Cl)cc2)cc1C1=C(O)CC(C)CC1=O (centres unmarked) [Example 7-1, 2-(4′-chloro-4-methylbiphenyl-3-yl)-3-hydroxy-5-methylcyclohex-2-en-1-one] | 678 nM | > 20000 nM |
| CCCC1CCC2(CC1)OC(=O)C(c1cc(-c3ccc(Cl)cc3)ccc1C)=C2O (centres unmarked) [Example 2-36, 3-(4′-chloro-4-methylbiphenyl-3-yl)-4-hydroxy-8-propyl-1-oxaspiro[4.5]dec-3-en-2-one] |  | 1940 nM |
| Cc1cc(C)c(-c2ccc(Cl)cc2)c(C)c1C1=C(O)C2(CCCCCC2)OC1=O [Example 2-48, 3-(4′-chloro-2,4,6-trimethylbiphenyl-3-yl)-4-hydroxy-1-oxaspiro[4.6]undec-3-en-2-one] | 1800 nM | 204 nM |
| CCCC1CCC2(CC1)NC(=O)C(c1cc(-c3ccc(Cl)cc3)ccc1C)=C2O (centres unmarked) [Example 1-83, 3-(4′-chloro-4-methylbiphenyl-3-yl)-4-hydroxy-8-propyl-1-azaspiro[4.5]dec-3-en-2-one] | 459 nM | 349 nM |
| CCOC1CCC2(CC1)NC(=O)C(c1c(C)cc(C)c(-c3ccc(Cl)cc3)c1C)=C2O (centres unmarked) [Example 1-75, 3-(4′-chloro-2,4,6-trimethylbiphenyl-3-yl)-8-ethoxy-4-hydroxy-1-azaspiro[4.5]dec-3-en-2-one] | 7970 nM | 376 nM |
| Cc1ccc(-c2ccc(Cl)cc2)cc1C1=C(O)C2(CCC3(CC2)OCCO3)NC1=O [Example 1-60, 11-(4′-chloro-4-methylbiphenyl-3-yl)-12-hydroxy-1,4-dioxa-9-azadispiro[4.2.4.2]tetradec-11-en-10-one] | 237 nM | 2330 nM |
| Cc1cc(C)c(-c2ccc(Cl)cc2)c(C)c1C1=C(O)C2(CCCC2)OC1=O [Example 2-49, 3-(4′-chloro-2,4,6-trimethylbiphenyl-3-yl)-4-hydroxy-1-oxaspiro[4.4]non-3-en-2-one] | 5780 nM | 1280 nM |
| Cc1ccc(-c2ccc(Cl)cc2)cc1C1=C(O)C2(CCCC2)NC1=O [Example 1-85, 3-(4′-chloro-4-methylbiphenyl-3-yl)-4-hydroxy-1-azaspiro[4.4]non-3-en-2-one] | 340 nM | 4000 nM |
| CO[C@H]1CC[C@]2(CC1)NC(=O)C(c1cc(-c3ccc(F)cc3)ccc1Cl)=C2O [Example 1-44, (5s,8s)-3-(4-chloro-4′-fluorobiphenyl-3-yl)-4-hydroxy-8-methoxy-1-azaspiro[4.5]dec-3-en-2-one] | 915 nM | > 20000 nM |
| Cc1ccc(-c2ccc(Cl)cc2)c(C)c1C1=C(O)C2(CCC3(CC2)OCC(C)O3)NC1=O (centres unmarked) [Example 1-62, 11-(4′-chloro-2,4-dimethylbiphenyl-3-yl)-12-hydroxy-2-methyl-1,4-dioxa-9-azadispiro[4.2.4.2]tetradec-11-en-10-one] | 690 nM |  |
| COC1CCC2(CC1)NC(=O)C(c1cc(-c3ccc(Cl)c(Cl)c3)ccc1C)=C2O (centres unmarked) [Example 1-81, 3-(3′,4′-dichloro-4-methylbiphenyl-3-yl)-4-hydroxy-8-methoxy-1-azaspiro[4.5]dec-3-en-2-one] |  | 1410 nM |
| COC1CCC2(CC1)SC(=O)C(c1cc(-c3ccc(Cl)cc3)ccc1C)=C2O (centres unmarked) [Example 3-1, 3-(4′-chloro-4-methylbiphenyl-3-yl)-4-hydroxy-8-methoxy-1-thiaspiro[4.5]dec-3-en-2-one] | 853 nM |  |
| Cc1ccc(-c2ccc(Cl)cc2)cc1C1=C(O)C2(CC2)NC1=O [Example 1-84, 6-(4′-chloro-4-methylbiphenyl-3-yl)-7-hydroxy-4-azaspiro[2.4]hept-6-en-5-one] | 455 nM |  |

Results, then the compound that gave them:

| IC50 [1] | IC50 [2] | SMILES |
| --- | --- | --- |
| 625 nM | > 20000 nM | Cc1ccc(-c2ccc(Cl)cc2)cc1-c1c(O)c2ccccc2[nH]c1=O [Example 9-5, 3-(4′-chloro-4-methylbiphenyl-3-yl)-4-hydroxyquinolin-2(1H)-one] |
| 329 nM | 5560 nM | O=c1[nH]c2cc(Cl)ccc2c(O)c1-c1cc(-c2ccc(Cl)cc2)ccc1Cl [Example 9-13, 7-chloro-3-(4,4′-dichlorobiphenyl-3-yl)-4-hydroxyquinolin-2(1H)-one] |
| 1640 nM | 5620 nM | Cc1ccc(-c2ccc(Cl)cc2)cc1C1=C(O)C(C)(C)C(C)(C)NC1=O [Example 9-14, 3-(4′-chloro-4-methylbiphenyl-3-yl)-4-hydroxy-5,5,6,6-tetramethyl-5,6-dihydropyridin-2(1H)-one] |
| 97 nM | 1670 nM | Cc1ccc(-c2ccc(Cl)cc2)cc1C1=C(O)C2(CCCCC2)SC1=O [Example 3-2, 3-(4′-chloro-4-methylbiphenyl-3-yl)-4-hydroxy-1-thiaspiro[4.5]dec-3-en-2-one] |
| 1390 nM | 16200 nM | Cc1ccc(-c2cccc(Cl)c2)cc1C1=C(O)C2(CCCCC2)CC1=O [Example 6-3, 3-(3′-chloro-4-methylbiphenyl-3-yl)-4-hydroxyspiro[4.5]dec-3-en-2-one] |
| 580 nM |  | Cc1cc(C)c(-c2c(O)c3ccc(Cl)cc3[nH]c2=O)cc1-c1ccc(Cl)cc1 [Example 9-12, 7-chloro-3-(4′-chloro-4,6-dimethylbiphenyl-3-yl)-4-hydroxyquinolin-2(1H)-one] |
|  | 8290 nM | Cc1ccc(-c2ccc(Cl)c(Cl)c2)cc1-c1c(O)c2ccc(Cl)cc2[nH]c1=O [Example 9-7, 7-chloro-3-(3′,4′-dichloro-4-methylbiphenyl-3-yl)-4-hydroxyquinolin-2(1H)-one] |
